Results reported in patent US5529918A, “Process for preparing neuraminidase” (Fidia S.p.A., priority 1991, dated 1996).

Tested on: neuraminidase from Arthrobacter Sp. (Arthrobacter ureafaciens VR-1, NCIMB 40717), purified, molecular weight 55,000-60,000
Assay: Neuraminidase enzymatic activity and inhibition (thiobarbituric acid method, released NANA)
Format: biochemical
Conditions: inhibition of the neuraminidase by NANA; GDia as substrate in the activity test
Experimental: The enzymatic activity of the neuraminidase is determined at the saturation levels of the substrate concentration, corresponding to 5 times the Km value.
The released product is measured by employing the colorimetric technique (thiobarbituric acid method). For instance, when the neuraminidase enzyme and its substrate (a ganglioside like GDia) are incubated for 5-10 minutes and the NANA, hydrolyzed from the substrate, is employed for evaluating the enzymatic activity, the NANA released in the solution undergoes a series of reactions, in order to determine its actual amount.
Since NANA is also employed for obtaining the culture media of the steady state wherefrom the filtrate is extracted, a few check reactions are carried out, in order to ascertain that the measured NANA be the one coming from the reaction between enzyme and substrate and not the one coming as a residue from the original culture.
For instance, a few tests are carried out on 3 test-tubes, as reported hereinbelow. […]
In the first test-tube (S) there should be no NANA. Should NANA be retrieved in the second test-tube (B), its spectrophotometric reading is subtracted from the reading obtained from the reaction in test-tube three (E). The enzyme activity is therefore indirectly measured as the amount of hydrolized NANA per minute at pH 5.3 and at 37° C., using GDia as the substrate. […]

CC(=O)N[C@H]1[C@H]([C@H](O)[C@H](O)CO)OC(O)(C(=O)O)C[C@@H]1O (stereo partly shown) [NANA, N-acetyl-neuraminic acid]
Ki: ~300 µM
